According to publication PMC8609307 (2021):

Experiments:
[1] = test system: EC-28, Cy3-Cy5 dual-labeled (RNA, riboswitch, azido-uridine analog at 14) GUUCUCAACGGGGUGCCACGCGUACGCG; experiment: smFRET; details: 20 mM MgCl2, 20 mM NaCl; tested at 1 mM TPP
[2] = test system: EC-88 G37C, Cy3-Cy5 dual-labeled (RNA, riboswitch, azido-uridine analog at 14) GUUCUCAACGGGGUGCCACGCGUACGCGUGCGCUGACAAAAUACCCGUCGAACCUGAUCCGGAUAACGCCGGCGAAGGGAUUUGAGGC; experiment: smFRET; details: 20 mM MgCl2, 20 mM NaCl; tested at 1 mM TPP
[3] = test system: EC-117, Cy3-Cy5 dual-labeled (RNA, riboswitch, azido-uridine analog at 14) GUUCUCAACGGGGUGCCACGCGUACGCGUGCGCUGAGAAAAUACCCGUCGAACCUGAUCCGGAUAACGCCGGCGAAGGGAUUUGAGGCUCCUUCUCAAGUCCUUUGCCACUCUUUUU; experiment: smFRET; details: 20 mM MgCl2, 20 mM NaCl; 1 mM and 10 µM TPP
[4] = test system: EC-88 WT, Cy3-Cy5 dual-labeled (RNA, riboswitch, azido-uridine analog at 14) GUUCUCAACGGGGUGCCACGCGUACGCGUGCGCUGAGAAAAUACCCGUCGAACCUGAUCCGGAUAACGCCGGCGAAGGGAUUUGAGGC; experiment: smFRET; details: 20 mM MgCl2, 20 mM NaCl; 1 mM TPP
[5] = test system: EC-136, Cy3-Cy5 dual-labeled (RNA, riboswitch, azido-uridine analog at 14) GUUCUCAACGGGGUGCCACGCGUACGCGUGCGCUGAGAAAAUACCCGUCGAACCUGAUCCGGAUAACGCCGGCGAAGGGAUUUGAGGCUCCUUCUCAAGUCCUUUGCCACUCUUUUUUGAGGUGCAAAGUGUUAAA; experiment: smFRET; details: 20 mM MgCl2, 20 mM NaCl; poor folding at 1 mM TPP; none at 10 µM TPP
[6] = test system: 117-nt transcript without RNAP, Cy3-Cy5 dual-labeled (RNA, riboswitch, azido-uridine analog at 14) GUUCUCAACGGGGUGCCACGCGUACGCGUGCGCUGAGAAAAUACCCGUCGAACCUGAUCCGGAUAACGCCGGCGAAGGGAUUUGAGGCUCCUUCUCAAGUCCUUUGCCACUCUUUUU; experiment: smFRET; details: 20 mM MgCl2, 20 mM NaCl; tested at 1 mM TPP; no RNAP
[7] = test system: EC-83 nascent transcript (RNA, riboswitch) GUUCUCAACGGGGUGCCACGCGUACGCGUGCGCUGAGAAAAUACCCGUCGAACCUGAUCCGGAUAACGCCGGCGAAGGGAUUU; experiment: RNase H cleavage protection; details: 20 mM MgCl2, 20 mM NaCl (transcription buffer); stalled at pause site 83; Kswitch plot Figure 2D
[8] = test system: EC-104, Cy3-Cy5 dual-labeled (RNA, riboswitch, azido-uridine analog at 14) GUUCUCAACGGGGUGCCACGCGUACGCGUGCGCUGAGAAAAUACCCGUCGAACCUGAUCCGGAUAACGCCGGCGAAGGGAUUUGAGGCUCCUUCUCAAGUCCUU; experiment: smFRET; details: 20 mM MgCl2, 20 mM NaCl; 1 mM TPP

binding [1]: no
binding [2]: no
binding [3]: yes
binding [4]: yes
binding [5]: weak
binding [6]: no
binding [7]: no
binding [8]: yes
Structure (SMILES): Cc1ncc(C[n+]2csc(CCOP(=O)(O)OP(=O)(O)O)c2C)c(N)n1
